Reference: patent publication US20080171780A1, “Process for Crystallization of Ramipril and Preparation of a Hydrated Form Thereof” (LUPIN LIMITED, priority 2004, published 2008)
Values belong to the compound of their own block, whether it stands above or below them.

Columns and labels:
Type in all cases: physicochemical
[1] = In vitro drug release (dissolution) profile, USP apparatus 1, 0.1 N HCl; conditions: 50 RPM, solid composition with pregelatinized starch
Protocol: Optically pure Ramipril(I) obtained from example 1 is formulated as a solid pharmaceutical composition by conventional way of direct mixing process with excipients such as pregelatinized starch.
Ramipril(I) monohydrate obtained from example 5 is formulated as a solid pharmaceutical composition by conventional way of direct mixing process with excipients such as pregelatinized starch.
The in vitro drug release profile was carried out using USP apparatus 1,500 ml of 0.1 N HCl at 50 RPM. Following table provides a comparison of dissolution profile of Ramipril(I) crystallized from diethoxymethane as well as the Ramipril(I) monohydrate and prior art method.

[2] = Bulk density (B.D.) of crystalline material
Description: The bulk density is an economically, commercially, and functionally important property. […] Moreover, when shipping powders over long distances a high bulk density results in reducing the shipping volume. A high bulk density compound also saves packing material and storage capacity.

[3] = Tapped density (T.D.) of crystalline material
[4] = Stability study at 40° C./75% RH, assay by HPLC; conditions: crystallized by Diethoxymethane
[5] = Thermal stability of the hydrate form; conditions: converts to anhydrous form on heating above 40° C.
Protocol: The novel hydrate of Ramipril(I) occurs in crystalline form. It is readily converted to the anhydrous moiety by heating at a temperature in the range from 40° C. to 42° C. under reduced pressure of 2 to 5 mm hg. The novel hydrate form is stable up to a temperature of 25° C. The monohydrate is transformed into anhydrous Ramipril(I), the so-called “anhydrate” on heating above 40° C. with a speed depending on the conditions of dehydration.

[6] = Present invention, solvent 2,2-Dimethoxy-propane
[7] = Present invention, solvent Diethoxymethane
[8] = Present invention, solvent Methyl formate
[9] = Present invention, solvent Nitromethane
[10] = Prior art method, solvent Ethanol-diethyl ether
[11] = Prior art method, solvent Ethanol-diisopropyl ether

SMILES: CCOC(=O)[C@H](CCc1ccccc1)N[C@@H](C)C(=O)N1[C@H](C(=O)O)C[C@@H]2CCC[C@@H]21 [Prior art Method]
- % Drug release of the Label claim ([1]; 5 Min.): 18.8%
- % Drug release of the Label claim ([1]; 10 Min.): 75%

SMILES: CCOC(=O)[C@H](CCc1ccccc1)N[C@@H](C)C(=O)N1[C@H](C(=O)O)C[C@@H]2CCC[C@@H]21.O [Monohydrate Ramipril(I)]
- temperature up to which the form is stable [5]: ≤ 25 °C
- % Drug release of the Label claim ([1]; 5 Min.): 40.8%
- % Drug release of the Label claim ([1]; 10 Min.): 87%

Further lines, results first:

- bulk density [2]: 0.3 to 0.35 g/mL
SMILES: CCOC(=O)[C@H](CCc1ccccc1)N[C@@H](C)C(=O)N1[C@H](C(=O)O)C[C@@H]2CCC[C@@H]21 [anhydrous Ramipril(I)]

- T.D. [3, 6]: 0.14 to 0.18 g/mL
- T.D. [3, 7]: 0.32 to 0.37 g/mL
- T.D. [3, 8]: 0.15 to 0.17 g/mL
- T.D. [3, 9]: 0.15 to 0.17 g/mL
- T.D. [3, 10]: 0.15 to 0.17 g/mL
- T.D. [3, 11]: 0.13 to 0.15 g/mL
- Assay by HPLC(%) ([4]; 40° C. ± 2° C./75% ± 5% RH, 1 Month): 99.5%
- Assay by HPLC(%) ([4]; 40° C. ± 2° C./75% ± 5% RH, 2 Month): 99.2%
- Assay by HPLC(%) ([4]; 40° C. ± 2° C./75% ± 5% RH, 3 Month): 99.12%
- Assay by HPLC(%) ([4]; Initial): 99.68%
- B.D. [2, 6]: 0.1 to 0.13 g/mL
- B.D. [2, 7]: 0.22 to 0.24 g/mL
- B.D. [2, 8]: 0.11 to 0.13 g/mL
- B.D. [2, 9]: 0.12 to 0.14 g/mL
- B.D. [2, 10]: 0.09 to 0.12 g/mL
- B.D. [2, 11]: 0.08 to 0.1 g/mL
SMILES: CCOC(=O)[C@H](CCc1ccccc1)N[C@@H](C)C(=O)N1[C@H](C(=O)O)C[C@@H]2CCC[C@@H]21 [Ramipril(I), (2S,3aS,6aS)-1-[(S)-2-[[(S)-1-(ethoxycarbonyl)-3-phenylpropyl]-amino]propanoyl]octahydrocyclopenta[b]pyrrole-2-carboxylic acid]

- % Drug release of the Label claim ([1]; 5 Min.): 48.4%
- % Drug release of the Label claim ([1]; 10 Min.): 93.8%
SMILES: CCOC(=O)[C@H](CCc1ccccc1)N[C@@H](C)C(=O)N1[C@H](C(=O)O)C[C@@H]2CCC[C@@H]21 [Crystallised from Diethoxymethane, (2S,3aS,6aS)-1-[(S)-2-[[(S)-1-(ethoxycarbonyl)-3-phenylpropyl]-amino]propanoyl]octahydrocyclopenta[b]pyrrole-2-carboxylic acid]
